Measurements taken from US7897772B2, “Acid addition salt of irinotecan” (priority 2004, dated 2011).
Where a name gives a salt, the structure may show the parent alone.

How the values were obtained:
[1] = Dissolution of 100 mg/mL salt suspensions on heating and later crystal deposition at 25° C. (Example 2); format: physicochemical; conditions: for Dissolution on heating: 100 mg/mL
Protocol: The thus-produced irinotecan nitric acid addition salt solution was stirred at 25° C. After stirring of the solution for about 42 hours, crystals of the irinotecan nitric acid addition salt were deposited.

[2] = Dissolution of irinotecan acid addition salts in water at 100 mg/mL at room temperature and state of the solution after 6 days of stirring (Example 1); format: physicochemical; conditions: for Dissolution of the salt in water at room temperature: salt content adjusted to 100 mg/mL, no heating
Protocol: To an aqueous suspension of irinotecan (1-ethyl-10-[4-(1-piperidino)-1-piperidino]carbonyloxycamptothecin) produced through the method disclosed in Patent Document 1, each acid species was added, to thereby produce a corresponding irinotecan acid addition salt. The irinotecan acid addition salt content was adjusted to 100 mg/mL. […] Each of the aqueous solutions employing sulfuric acid, phosphoric acid methanesulfonic acid, citric acid, maleic acid, and succinic acid, respectively, was filtered by a membrane filter, and the filtrate was stirred at room temperature (25° C.). After continuous stirring for 6 days, the aqueous solution was visually observed so as to evaluate the state of the solution.

Row | SMILES | Dissolution on heating ([1]; stirred at 100° C. for 30 minutes) | Dissolution of the salt in water at room temperature ([2]; listed as acetic acid) | Stirring time after which crystals were deposited ([1]; 100 mg/mL solution dissolved by heating, then stirred at 25° C.) | Dissolution on heating ([1]; 70° C. under stirring for three minutes) | State of the Solution after Day 6 (footnote symbol: salt not dissolved) ([2]; 100 mg/mL in water at room temperature) | Dissolution of the salt in water at room temperature ([2]; listed as nitric acid)
1 | CCc1c2c(nc3ccc(OC(=O)N4CCC(N5CCCCC5)CC4)cc13)-c1cc3c(c(=O)n1C2)COC(=O)[C@]3(O)CC [Irinotecan acetic acid addition salt, reference compound] | maintained undissolved | not dissolved in water at room temperature | – | – | – | –
2 | CCc1c2c(nc3ccc(OC(=O)N4CCC(N5CCCCC5)CC4)cc13)-c1cc3c(c(=O)n1C2)COC(=O)[C@]3(O)CC [Irinotecan nitric acid addition salt, irinotecan nitric acid salt] | – | – | about 42 hours | completely dissolved | *1 | not dissolved in water at room temperature
